Measurements as given in patent US20090227616A1, “INHIBITORS OF AKT ACTIVITY” (SMITHKLINE BEECHAM CORPORATION, a corporation, priority 2005, published 2009).
Converted amounts (≈) assume the structure as drawn.

Assays:
[1] = Solubility in 50 mM phosphate buffer at pH 7.4; assay type: physicochemical; settings: aqueous buffer
[2] = system: LNCaP (lymph node metastasis of prostate cancer); assay: Methylene Blue Growth Inhibition Assay; assay type: cell-based; settings: Homo sapiens, 72 h, 3 days
Method: (§1) Tumor cell lines used in this assay were BT474 (human breast carcinoma) and LNCaP (lymph node metastasis of prostate cancer). HFF (normal human foreskin fibroblast) was also included. All cell lines were cultured in RPMI 1640 media (Invitrogen Corporation 22400-071) containing 10% Fetal Bovine Serum (FBS) at 37° C. in a humidified 5% CO2 incubator. Cells were harvested using trypsin/EDTA, counted using a hemacytometer and plated in 96-well tissue culture plates (Costar 35-3075), 100 uL per well, at the following densities: BT474 15,000 cells/well, LNCaP 5,000 cells/well and HFF 5,000 cells/well. 10 mM stocks of compounds in DMSO were serially diluted in DMSO through nine 3-fold dilutions in 96-well plates (Costar Corning 3363), and stored at −80C. The next day, compound dilutions were thawed and 4 uL of each transferred to 662 uL RPMI 1640+100 ug/mL gentamicin, resulting in twice the final required test concentrations. 100 uL of compounds diluted in RPMI 1640 were added to all cell lines. The final concentration of DMSO in all wells, including controls, was 0.3%. Cells were incubated at 37C, 5% CO2 for 3 days. Medium was removed by aspiration. Cell biomass was estimated by staining cells with 80 uL methylene blue (Sigma M9140, 0.5% in 50:50 ethanol:water), and incubating at room temperature for 1 hour. Stain was aspirated and the plates rinsed by immersion in water, then air-dried. Stain was released from cells by adding 100 uL of solubilizing solution (1% N-lauroyl sarcosine, sodium salt, Sigma L5125, in PBS) and incubating at room temperature for at least 30 minutes. Plates were shaken and the optical density at 620 nm was measured on a microplate reader. Percent inhibition of cell growth was calculated relative to vehicle-treated control wells. Concentration of compound that inhibits 50% of cell growth (IC50) was interpolated using non-linear regression (Levenberg-Marquadt) and the equation, y=Vmax*(1−(x̂n/K̂n+x̂n)))+Y2. [Ref: Mager, M. E. (1972) Data Analysis in Biochemistry and Biophysics. New York: Academic Press]

[3] = system: HFF (normal human foreskin fibroblast); assay: Methylene Blue Growth Inhibition Assay; assay type: cell-based; settings: 72 h, 3 days
Method: as §1

[4] = system: BT474 (human breast carcinoma); assay: Methylene Blue Growth Inhibition Assay; assay type: cell-based; settings: BT-474, 72 h, BT474, 3 days
Method: as §1

FL AKT2 = target: T1, FL AKT2 (Homo sapiens, UniProt P31751); assay: Full-length AKT enzyme assay (substrate phosphorylation, SPA); assay type: biochemical; settings: 4 uM ATP
T1 construct: 0.025 um, FL AKT2
T1 sequence (P31751 whole entry): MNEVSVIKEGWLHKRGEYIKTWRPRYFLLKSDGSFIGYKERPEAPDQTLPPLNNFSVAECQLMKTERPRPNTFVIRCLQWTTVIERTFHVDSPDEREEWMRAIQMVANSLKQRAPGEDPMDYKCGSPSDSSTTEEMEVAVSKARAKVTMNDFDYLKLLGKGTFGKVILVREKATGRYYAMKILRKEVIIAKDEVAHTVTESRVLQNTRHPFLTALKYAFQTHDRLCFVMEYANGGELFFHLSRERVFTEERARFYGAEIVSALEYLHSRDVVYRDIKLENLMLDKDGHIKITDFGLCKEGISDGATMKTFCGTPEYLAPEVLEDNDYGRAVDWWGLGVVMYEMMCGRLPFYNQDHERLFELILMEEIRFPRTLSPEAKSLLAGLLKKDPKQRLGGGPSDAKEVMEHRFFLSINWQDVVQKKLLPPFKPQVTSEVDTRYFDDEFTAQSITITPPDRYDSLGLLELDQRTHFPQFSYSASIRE

FL AKT1 = target: T2, FL AKT1 (Homo sapiens, UniProt P31749); assay: as above; assay type: biochemical; settings: 4 uM ATP
T2 construct: Full-length human AKT1 gene was amplified by PCR; His tag (from vector pFastBacHTb; own knowledge that this vector adds an N-terminal 6xHis and TEV site) (N); made in house; host or cells: baculovirus; virus produced in Sf9, protein expressed in T. ni insect cells
T2 sequence (P31749 whole entry): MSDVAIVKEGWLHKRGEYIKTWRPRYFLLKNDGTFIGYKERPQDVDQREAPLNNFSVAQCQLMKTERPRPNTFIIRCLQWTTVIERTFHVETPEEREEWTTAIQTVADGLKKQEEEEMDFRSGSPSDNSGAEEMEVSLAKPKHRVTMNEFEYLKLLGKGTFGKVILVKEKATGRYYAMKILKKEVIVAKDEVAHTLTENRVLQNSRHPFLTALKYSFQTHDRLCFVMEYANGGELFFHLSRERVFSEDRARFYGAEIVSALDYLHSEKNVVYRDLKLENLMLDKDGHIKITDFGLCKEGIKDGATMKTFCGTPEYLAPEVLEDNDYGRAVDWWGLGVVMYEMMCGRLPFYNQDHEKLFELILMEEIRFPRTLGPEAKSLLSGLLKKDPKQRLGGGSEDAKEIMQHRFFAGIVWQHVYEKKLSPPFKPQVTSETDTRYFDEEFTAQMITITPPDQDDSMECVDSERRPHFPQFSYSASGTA

Row | Structure (SMILES) | solubility [1] [µM] | IC50 [2] [µM] | IC50 [4] [µM] | IC50 (FL AKT2) [µM] | IC50 (FL AKT1) [µM] | IC50 [3] [µM]
1 | CCn1c(-c2nonc2N)nc2c(C#CC(C)(C)O)ncc(OCCCN3CCCCC3)c21 [Example 1, 4-(2-(4-amino-1,2,5-oxadiazol-3-yl)-1-ethyl-7-{[3-(1-piperidinyl)propyl]oxy}-1H-imidazo[4,5-c]pyridin-4-yl)-2-methyl-3-butyn-2-ol] | 35 (≈ 15.9 µg/mL) | 0.096 | 0.496 | 0.025 | 0.003 | 17.7
2 | CCCC(CN)COc1cnc(C#CC(C)(C)O)c2nc(-c3nonc3N)n(CC)c12 (stereo not drawn) [Example 11, 4-[7-{[2-(aminomethyl)pentyl]oxy}-2-(4-amino-1,2,5-oxadiazol-3-yl)-1-ethyl-1H-imidazo[4,5-c]pyridin-4-yl]-2-methyl-3-butyn-2-ol] | 203 (≈ 86.8 µg/mL) | 0.057 | 0.225 | – | – | 15
3 | CCn1c(-c2nonc2N)nc2c(C#CC(C)(C)O)ncc(OCCCN3CCCC3)c21 [Example 2, 4-(2-(4-amino-1,2,5-oxadiazol-3-yl)-1-ethyl-7-{[3-(1-pyrrolidinyl)propyl]oxy}-1H-imidazo[4,5-c]pyridin-4-yl)-2-methyl-3-butyn-2-ol] | 152 (≈ 66.8 µg/mL) | 0.096 | 0.437 | 0.016 | 0.002 | > 15

Now from value to compound, other results behind:

Row | solubility [1] [µM] | IC50 [2] [µM] | IC50 [4] [µM] | IC50 (FL AKT2) [µM] | IC50 (FL AKT1) [µM] | Structure (SMILES) | IC50 [3] [µM]
4 | 164 (≈ 72.4 µg/mL) | 0.081 | 0.556 | – | – | CCn1c(-c2nonc2N)nc2c(C#CC(C)(C)O)ncc(OCC(CN)CC(C)C)c21 (stereo not drawn) [Example 12, 4-[7-{[2-(aminomethyl)-4-methylpentyl]oxy}-2-(4-amino-1,2,5-oxadiazol-3-yl)-1-ethyl-1H-imidazo[4,5-c]pyridin-4-yl]-2-methyl-3-butyn-2-ol] | 26.4
5 | 108 (≈ 47.7 µg/mL) | 0.032 | 0.088 | – | – | CCCCC(CN)COc1cnc(C#CC(C)(C)O)c2nc(-c3nonc3N)n(CC)c12 (stereo not drawn) [Example 13, 4-[7-{[2-(aminomethyl)hexyl]oxy}-2-(4-amino-1,2,5-oxadiazol-3-yl)-1-ethyl-1H-imidazo[4,5-c]pyridin-4-yl]-2-methyl-3-butyn-2-ol] | 6.65
